From US20220395497A1, “Cancer Treatment Using Camptothecin Derivatives” (priority 2019, published 2022)
“And” between values parts separate entries of the source, which are not always exact repeats. Equal entries are not always repeated.

Test system: adults with recurrence of glioblastoma multiforme (GBM)
Test: Phase 2 open-label study of IV AR-67 (7.5 mg/m2 once daily for 5 days, 21-day cycle) in recurrent GBM: adverse events (Safety Population, NCI-CTCAE). Cohort 1 = not received or not recently failed (>90 days) bevacizumab; Cohort 2 = recently (<90 days) failed bevacizumab
Format: in vivo, human
Method: This solution was reconstituted in dextrose 5% in water to a final concentration between 0.06-0.6 mg/mL Drug (7.5 mg/m2) was to be given until the onset of toxicity requiring discontinuation or tumor progression. Tumor response was assessed=14d after every second cycle and before every third cycle using MRI.

[1] = All Patients, N = 45, possibly, probably, or definitely related

## CC[C@@]1(O)C(=O)OCc2c1cc1n(c2=O)Cc2c-1nc1ccc(O)cc1c2[Si](C)(C)C(C)(C)C [AR-67, (205)-7-tert-butyldimethysilyl-10-hydroxycamptothecin]
All Patients
  TEAEs associated with laboratory abnormalities assessed as Grade 4 in toxicity, events: Three
  headache as TEAE leading to discontinuation, patients: 3
  patients with AR-67 permanently discontinued due to an SAE: Three
  patients with AR-67 temporarily interrupted or stopped due to an SAE: Six
  patients with dose modification due to an SAE: 2
  thrombocytopenia, anaemia, neutropenia, and leukopenia, each occurring in % of all patients: 11-18%
All Patients, N = 45
  Death, No of Events: 3
  Death, patients (%): (6.7) %
  SAE, No of Events: 30
  TEAE Anaemia, patients (%): 15.6%
  TEAE Confusional state, patients (%): 11.1%
  TEAE Constipation, patients (%): 20.0%
  TEAE Convulsion, patients (%): 8.9%
  TEAE Definitely Related to AR-67, No of Events: 55
  TEAE Diarrhoea, patients (%): 15.6%
  TEAE Dizziness, patients (%): 11.1%
  TEAE Dyspepsia, patients (%): 8.9%
  TEAE Eye Disorders, patients (%): 8.9%
  TEAE Flushing, patients (%): 11.1%
  TEAE Gastrointestinal Disorders, patients (%): (51.1) %
  TEAE General Disorders and Administration Site Conditions, patients (%): (37.8) %
  TEAE Headache, patients (%): (22.2) %
  TEAE Hiccups, patients (%): 11.1%
  TEAE Hyperglycaemia, patients (%): 8.9%
  TEAE Hypopho sphataemia, patients (%): 8.9%
  TEAE Intensity Life Threatening, No of Events: 4
  TEAE Intensity Life Threatening, patients (%): (8.9) %
  TEAE Intensity Mild, No of Events: 212/428 and 212
  TEAE Intensity Mild, patients (%): (68.9) %
  TEAE Intensity Moderate, No of Events: 128/428 and 128
  TEAE Intensity Moderate, patients (%): (57.8) %
  TEAE Intensity Severe, No of Events: 75
  TEAE Intensity Severe, patients (%): (62.2) %
  TEAE Leukopenia, patients (%): 11.1%
  TEAE Lymphocyte count decreased, patients (%): 11.1%
  TEAE Muscular weakness, patients (%): 11.1%
  TEAE Musculoskeletal and Connective Tissue Disorders, patients (%): (28.9) %
  TEAE Musculoskeletal pain, patients (%): 6.7%
  TEAE NCI-CTCAE Grade 1, No of Events: 209
  TEAE NCI-CTCAE Grade 1, patients (%): (66.7) %
  TEAE NCI-CTCAE Grade 2, No of Events: 119
  TEAE NCI-CTCAE Grade 2, patients (%): (51.1) %
  TEAE NCI-CTCAE Grade 3, No of Events: 82
  TEAE NCI-CTCAE Grade 3, patients (%): (66.7) %
  TEAE NCI-CTCAE Grade 4, No of Events: 9
  TEAE NCI-CTCAE Grade 4, patients (%): (20.0) %
  TEAE Nausea, patients (%): 20.0%
  TEAE Nervous System Disorders, patients (%): (51.1) %
  TEAE Neutropenia, patients (%): 13.3%
  TEAE Neutrophil count decreased, patients (%): 13.3%
  TEAE Not Related to AR-67, No of Events: 117
  TEAE Platelet count decreased, patients (%): 8.9%
  TEAE Possibly Related to AR-67, No of Events: 170
  TEAE Probably Related to AR-67, No of Events: 79
  TEAE Psychiatric Disorders, patients (%): (28.9) %
  TEAE Respiratory, Thoracic, and Mediastinal Disorders, patients (%): (24.4) %
  TEAE Thrombocytopenia, patients (%): 17.8%
  TEAE Vascular Disorders, patients (%): 17.8%
  TEAE Vision blurred, patients (%): 8.9%
  TEAE Vomiting, patients (%): 8.9%
  TEAE White blood cell count decreased, patients (%): 11.1%
  TEAE leading to death, No of Events: 17
  TEAE leading to early discontinuation, No of Events: 10
  TEAE, No of Events: 428
  ≥1 TEAE leading to death, patients (%): (4.4) %
[1]
  1 related SAE, patients (%): (24.4) %
  related SAE, No of Events: 19/29 and 19/30 and 11/30 and 19
  related TEAE, No of Events: 304
Cohort 1
  SAE headache, patients: 1
  SAE infections and infestations, events: 4
  SAE infections and infestations, patients: 3
  SAE nervous system disorders, events: 3
  SAE nervous system disorders, patients: 3
  SAE respiratory, thoracic and mediastinal disorders, events: 3
  SAE respiratory, thoracic and mediastinal disorders, patients: 2
Cohort 1, N = 30
  Death, No of Events: 1
  Death, patients (%): (3.3) %
  SAE, No of Events: 16
  TEAE Anaemia, patients (%): 23.3% and 23%
  TEAE Blood and Lymphatic System Disorders, events: 41
  TEAE Confusional state, patients (%): 10.0%
  TEAE Constipation, patients (%): 23.3% and 23%
  TEAE Convulsion, patients (%): 10.0%
  TEAE Definitely Related to AR-67, No of Events: 36
  TEAE Definitely Related to AR-67, patients (%): (40.0) %
  TEAE Diarrhoea, patients (%): 16.7%
  TEAE Dizziness, patients (%): 16.7%
  TEAE Dyspepsia, patients (%): 13.3%
  TEAE Eye Disorders, patients (%): (10.0) %
  TEAE Flushing, patients (%): (16.7) %
  TEAE Gastrointestinal Disorders, patients (%): (50.0) %
  TEAE General Disorders and Administration Site Conditions, patients (%): (36.7) %
  TEAE Headache, patients (%): 23.3% and 23%
  TEAE Hiccups, patients (%): (10.0) %
  TEAE Hyperglycaemia, patients (%): (13.3) %
  TEAE Hypopho sphataemia, patients (%): (13.3) %
  TEAE Intensity Life Threatening, No of Events: 3
  TEAE Intensity Life Threatening, patients (%): (10.0) %
  TEAE Intensity Mild, No of Events: 177
  TEAE Intensity Mild, patients (%): (73.3) %
  TEAE Intensity Moderate, No of Events: 100
  TEAE Intensity Moderate, patients (%): (66.7) %
  TEAE Intensity Severe, No of Events: 59
  TEAE Intensity Severe, patients (%): (60.0) %
  TEAE Investigations SOC, events: 101
  TEAE Leukopenia, patients (%): 16.7%
  TEAE Lymphocyte count decreased, patients (%): 16.7%
  TEAE Metabolism and Nutrition Disorders, patients (%): (26.7) %
  TEAE Muscular weakness, patients (%): 10.0%
  TEAE Musculoskeletal and Connective Tissue Disorders, patients (%): (33.3) %
  TEAE Musculoskeletal pain, patients (%): 10.0%
